One test concerns CCRF-CEM. In words: In vitro inhibition of CCRF-CEM human leukemic lymphoblasts proliferation was determined. It counts as functional, cell-based.
A short description of test [1]: In vitro inhibition of P3UCLA human adenocarcinoma cell proliferation was determined in MTT proliferation assay. It counts as functional.

Converted amounts (≈) assume the structure as drawn.

By IC50 is commonly meant the concentration needed to halve the response being measured. A high value points to a need for much substance. In turn, `CC[C@]1(O)CC2CN(CCc3c([nH]c4ccccc34)[C@@](C(=O)OC)(c3cc4c(cc3OC)N(C)C3C45CCN4CC=C[C@](CC)(C45)C(OC(C)=O)[C@]3(O)C(=O)OC)C2)C1` (stereo partly specified) yielded an IC50 in the test with CCRF-CEM of 0.1 µg/mL (≈ 0.123 µM).

With `CC[C@]1(O)CC2CN(CCc3c([nH]c4ccccc34)[C@@](C(=O)OC)(c3cc4c(cc3OC)N(C)C3C45CCN4CC=C[C@](CC)(C45)C(OC(=O)CCC(=O)O)[C@]3(O)C(=O)OC)C2)C1` (stereo partly specified), the figures for the IC50 (in test [1]; in the test on CCRF-CEM) were 0.003 µg/mL (≈ 0.00345 µM) and 1.4 µg/mL (≈ 1.61 µM), respectively.

In test [1], `CC[C@]1(O)CC2CN(CCc3c([nH]c4ccccc34)[C@@](C(=O)OC)(c3cc4c(cc3OC)N(C)C3C45CCN4CC=C[C@](CC)(C45)C(O)[C@]3(O)C(=O)OC)C2)C1` (stereo partly specified) came in with an IC50 of 0.0003 µg/mL (≈ 0.00039 µM).

`CC[C@]1(O)C[C@@H]2CN(CCc3c([nH]c4ccccc34)[C@@](C(=O)OC)(c3cc4c(cc3OC)N(C)[C@H]3[C@@](O)(C(=O)NN)[C@H](O)[C@]5(CC)C=CCN6CC[C@]43[C@@H]65)C2)C1` [DESACETYLVINBLASTINEHYDRAZIDE]: the IC50 in test [1] is less than 0.0003 µg/mL; in the test with CCRF-CEM, 0.03 µg/mL (≈ 0.039 µM).

The record behind these values is ChEMBL document CHEMBL1124410, “New antitumor monoclonal antibody-vinca conjugates LY203725 and related compounds: design, preparation, and representative in vivo activity” (J Med Chem, 1989).
